Here are results for two substances from patent EP1336409B1 (priority 1995, dated 1997).

The assay concerns mechanical allodynia. The note with it: rat, in vivo.

For Met(0)^12-SNX-111 [SNX-279], the Effective intrathecal doses was in the range of 0.1 to 0.3 µg, the “apparent order of potency for suppression of allodynia” value is recorded as “SNX-111 =SNX-273 > SNX-279” and the “block of mechanical allodynia” value is given as “block mechanical allodynia significantly”.

As to [ala^12-SNX-111 [SNX-273], the Effective intrathecal doses is 0.1 to 0.3 µg, the “apparent order of potency for suppression of allodynia” value is “SNX-111 =SNX-273 > SNX-279” and the “block of mechanical allodynia” value is “block mechanical allodynia significantly”.
